Results from patent US11286247B2, “Acryloyl-containing nuclear transport regulators and uses thereof” (WIGEN BIOMEDICINE TECHNOLOGY (SHANGHAI) CO., LTD., priority 2019, dated 2022).
pIC50: −log10 of the molar value. Values after ≈ are worked out from the molar mass of the structure shown. “Also recorded” adds a separate entry of the source. Like-named read-outs stand apart in the source and are kept apart here.

Columns and labels:
[1] = system: BxPC-3 cells (pancreatic cancer); assay: Cancer cell proliferation assay, BxPC-3; type: cell-based; details: Homo sapiens, BXPC-3, 72 h; three days incubation, absorbance 570 nm; read-out: IC50 (μM) BxPC-3
Protocol: (§1) BxPC-3 cells (pancreatic cancer) and MDA-MB-231 cells (breast cancer cells) were harvested from exponential phase cultures and seeded in 96-well plates at a cell density of 2×10^4 per well. After overnight attachment, compounds including positive controls were applied to cells at five concentrations and incubated for three days. During the last four hours of incubation, 20 μL of 5 mg/mL […] was added followed by the further addition of 100 μL DMSO. The plates were subsequently shook for 10 minutes to dissolve insoluble purple formazan. Absorbance (A) at a wavelength of 570 nm was quantified. Percentage of inhibition was used for the calculation of IC50 based on the bliss method.

[2] = In vivo pharmacokinetic analysis; details: ICR, mouse; mice, 5 mg/kg, oral gavage in 0.5% CMC, plasma
Protocol: A group of 9 ICR mice received 5 mg/kg of compound in 0.5% CMC by oral gavage. Blood was taken before treatment and at 5 min, 30 min, 1, 2, 4, 8, 12 and 24 h after treatment. 80 μL of whole blood was sampled (n=3 at each time point) via retro-orbital bleeds or cardiac puncture. The blood sample was collected into EDTA tubes and plasma were obtained by centrifugation at 1500-1600 rpm for 10 min at 4° C. After centrifugation, plasma sample was transferred to a new tube and stored at −60 to −90° C. for future analysis. Plasma concentration of (compounds was quantified by a method based on liquid chromatography coupled to tandem mass-spectrometric detections (LC/MS/MS). Noncompartmental pharmacokinetics parameters were calculated.

[3] = Aqueous solubility assay; type: physicochemical; details: thermodynamic from solid, HPLC
Protocol: 10-30 mg of compounds were dissolved in water and an HCl solution at pH1.2 respectively, and then were continuously shook for three days, followed by centrifugation at 10000 rpm/minute for five minutes. A 2 mL aliquot of supernatant was removed and diluted to 50 mL to prepare a sample solution. A control solution was prepared by dissolving 2.5 mg compounds in methanol, which was subsequently diluted with water to a final volume of 50 mL. 20 μL of control and sample solutions were injected into HPLC. The area under the curve (A) of the sample solution was compared with that of the control solution and used for determination of the concentration. Solubility was calculated by the formula below. Solubility (mg/mL)=c(control)*25*A(sample)/A(control) • C (control): concentration of the control solution • A (sample): area under the curve of the sample solution • A (control): area under the curve of the control solution

[4] = system: MDA-MB-231 cells (breast cancer cells); assay: Cancer cell proliferation assay, MDA-MB-231; type: cell-based; details: Homo sapiens, MDA-MB-231, 72 h; three days incubation, absorbance 570 nm; read-out: IC50 (μM) MDA-MB-231
Protocol: as §1

[5] = system: BxPC-3 xenografts; assay: Anti-tumor growth efficacy in pancreatic tumor BxPC3 nude mice xenograft model; type: in vivo
Protocol: BxPC-3 cells were cultured in 1640 medium containing 10% FBS at 37° C. and 5% CO2, 8×10^6 BxPc-3 cells were implanted subcutaneously into the left armpit of 40 nude mice. […] Compound 62 was administered orally everyday (qd) at 10 mg/kg, whereas KPT330 and compound 38 were given three times a week (tiw, Monday, Wednesday and Friday) at 10 mg/kg by oral gavage, and compound 79 were given three times a week (tiw, Monday, Wednesday and Friday) at 2.5 mg/kg by oral gavage. Tumor volume and body weight were measured every other day. Mice were sacrificed on day 21, and tumor and terminal body weight were recorded. The relative tumor volume, percent treatment/control values and tumor growth inhibition were calculated and statistics was performed.

[6] = target: T1, CRM1 (Homo sapiens, UniProt O14980); assay: Rev-GFP nuclear export assay; type: cell-based; details: U2OS cells expressing Rev-GFP, 1 hour incubation, nuclear retention of Rev-GFP
T1 construct: The nuclear localization of Rev protein depends on CRM1; endogenous in cells; host or cells: U2OS cells stably or transiently expressing Rev-GFP (reporter cargo)
T1 sequence (O14980 whole entry): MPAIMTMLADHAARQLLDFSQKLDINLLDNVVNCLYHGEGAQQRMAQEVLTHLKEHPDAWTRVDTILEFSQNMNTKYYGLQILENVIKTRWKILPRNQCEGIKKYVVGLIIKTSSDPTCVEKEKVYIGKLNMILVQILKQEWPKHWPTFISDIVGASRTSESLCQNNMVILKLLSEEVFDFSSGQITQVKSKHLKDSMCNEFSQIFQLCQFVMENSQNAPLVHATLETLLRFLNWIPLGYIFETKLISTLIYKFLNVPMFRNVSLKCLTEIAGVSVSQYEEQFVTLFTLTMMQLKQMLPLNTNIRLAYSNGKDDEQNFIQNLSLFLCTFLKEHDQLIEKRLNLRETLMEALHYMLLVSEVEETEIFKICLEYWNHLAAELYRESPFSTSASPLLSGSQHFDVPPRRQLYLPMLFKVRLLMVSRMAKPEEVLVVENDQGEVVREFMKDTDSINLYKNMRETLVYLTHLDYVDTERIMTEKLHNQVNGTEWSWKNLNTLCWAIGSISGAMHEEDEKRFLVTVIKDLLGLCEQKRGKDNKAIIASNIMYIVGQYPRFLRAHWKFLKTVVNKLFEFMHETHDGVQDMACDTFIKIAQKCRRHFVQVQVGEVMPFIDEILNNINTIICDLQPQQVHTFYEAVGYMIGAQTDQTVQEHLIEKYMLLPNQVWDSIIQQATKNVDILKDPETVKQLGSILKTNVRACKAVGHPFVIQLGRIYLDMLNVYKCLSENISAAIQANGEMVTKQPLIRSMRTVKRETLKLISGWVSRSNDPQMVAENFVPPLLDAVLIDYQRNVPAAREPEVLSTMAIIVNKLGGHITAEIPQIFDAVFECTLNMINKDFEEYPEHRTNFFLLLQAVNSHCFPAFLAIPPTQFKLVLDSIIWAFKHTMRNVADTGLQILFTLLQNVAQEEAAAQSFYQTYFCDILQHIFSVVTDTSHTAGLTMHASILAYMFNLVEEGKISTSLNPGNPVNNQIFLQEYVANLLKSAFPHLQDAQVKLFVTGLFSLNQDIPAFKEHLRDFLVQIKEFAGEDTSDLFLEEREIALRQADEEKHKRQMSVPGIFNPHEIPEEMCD
Protocol: The Rev protein from HIV contains nuclear export sequence (NES) at its C terminus and nuclear localization sequence (NLS) at its N-terminus. The nuclear localization of Rev protein depends on CRM1. U2OS cells expressing Rev protein fused with GFP (Rev-GFP) were plated in black 384 plates with clear bottom one day prior to treatment. Compounds were serially diluted 2-fold from 40 μM with DMEM in 384 plates, and then incubated with U2OS cells for an hour. Cells were fixed with 3.7% formaldehyde afterwards and nuclei were stained with Hoechst33258. The nuclear retention of Rev-GFP was examined, and IC50 was calculated.

[7] = D1, first day of drug treatment, oral: KPT-330 and 38 10 mg/kg tiw, 79 2.5 mg/kg tiw, 62 10 mg/kg qd
[8] = D21, oral: KPT-330 and 38 10 mg/kg tiw, 79 2.5 mg/kg tiw, 62 10 mg/kg qd

IC50 [1]: 0.204 µM | AUC(0-t) [2]: 3410 ng·h/mL | Cmax [2]: 440 ng/mL | MRT [2]: 5.89 h | Tmax [2]: 1 h | half-life [2]: 3.42 h | solubility at 3 days ([3]; simulated gastric fluid, HCl solution of pH 1.2, shaken three days, read-out: Solubility, HCl solution of pH 1.2): 8.54 µg/mL (≈ 18.5 µM) | solubility at 3 days ([3]; water, shaken three days, read-out: Solubility, Water): 7.89 µg/mL (≈ 17.1 µM) | IC50 [4]: 0.126 µM | pIC50 [6]: > 6.00
Structure (SMILES): COC1=CC(=O)N(NC(=O)/C=C\n2cnc(-c3cc(C(F)(F)F)cc(C(F)(F)F)c3)n2)C1 [Compound 79, (Z)-3-(3-(3,5-bis(trifluoromethyl)phenyl)-1H-1,2,4-triazol-1-yl)-N-(4-methoxy-2-oxo-2,5-dihydro-1H-pyrrol-1-yl)acrylamide]
Tumor volume D1 [5, 7]: 66.87 ± 9.13 mm^3 | average body weight D1 [5, 7]: 20.15 g | TGI (tumor growth inhibition) [5, 8]: 84.37% | Tumor volume D21 [5, 8]: 126.90 ± 17.73 mm^3 | average body weight D21 [5, 8]: 21.30 g | RTV (relative tumor volume, Vt/V0) ([5]; D21, oral: KPT-330 and 38 10 mg/kg tiw, 79 2.5 mg/kg tiw, 62 10 mg/kg qd, *P < 0.05 vs. vehicle group): 1.63* | anti-tumor growth activity in BxPC-3 xenograft model (in words) ([5]; Example 79 2.5 mg/kg, Example 38 10 mg/kg, compared to 10 mg/kg KPT-330): significant anti-tumor growth activity; also recorded: more potent in inhibiting tumor growth | T/C ([5]; TRTV/CRTV X 100, oral: KPT-330 and 38 10 mg/kg tiw, 79 2.5 mg/kg tiw, 62 10 mg/kg qd): 49.20%
